One series has as its system mouse erythrocytes. Description: Hemolytic assay. It counts as cell-based. Particulars: 12.5 μg/mL; 2.5% (v/v) mouse erythrocytes in PBS, 30 min at 37 °C, absorbance at 540 nm; at least three independent experiments in triplicate. How it is done: This experiment was approved by the Institutional Animal Care and Use Committee (IACUC) of the National Institute of Agricultural Sciences (approval number: NAS-202014). The hemolytic activity of the peptides was determined by monitoring the release of hemoglobin from mouse erythrocytes at 540 nm. For the hemolytic assay, 20 μL of each peptide solution at a predetermined concentration was added to 180 μL of a 2.5% (v/v) suspension of mouse erythrocytes in phosphate-buffered saline (PBS). Melittin (Sigma, USA), a hemolytic and α-helical peptide isolated from bee venom, was used as the positive control. This mixture was incubated for 30 min at 37 °C, and 600 μL of PBS was then added to each tube. After 3 min of centrifugation at 10,000× g, the supernatant was removed, and the absorbance was measured at 540 nm. Evaluations were made from the results of at least three independent experiments, each carried out in triplicate.

Another series concerns mammalian cells. Conditions: cited from earlier work. The source says:
(§1) Papilio xuthus (P. xuthus), commonly known as the swallowtail butterfly, is found in the far east Asian regions of Korea, Japan, China, Taiwan, and Myanmar. Papiliocin is the 37 residue α-helical cecropin-like AMP isolated from an immune challenged larvae of swallowtail butterfly. […] Additionally, the antibacterial and antifungal activity of papiliocin is observed in multidrug- resistant bacterial and fungal strains, respective ...

For series [1] the following is noted: cited from earlier work.
Excerpt: as §1

Series [2] concerns Gram-positive and Gram-negative bacteria. Particulars: effect more pronounced in Gram-negative strains; cited from earlier work.
Excerpt: as §1

As to `CC[C@H](C)[C@H](NC(=O)CN)C(=O)NCC(=O)N[C@@H](C)C(=O)N[C@H](C(=O)N[C@@H](CC(C)C)C(=O)N[C@@H](CCCCN)C(=O)N[C@H](C(=O)N[C@@H](CC(C)C)C(=O)N[C@H](C(=O)N[C@H](C(=O)NCC(=O)N[C@@H](CC(C)C)C(=O)N1CCC[C@H]1C(=O)N[C@@H](C)C(=O)N[C@@H](CC(C)C)C(=O)N[C@H](C(=O)N[C@@H](CO)C(=O)N[C@@H](Cc1c[nH]c2ccccc12)C(=O)N[C@H](C(=O)N[C@@H](CCCCN)C(=O)N[C@@H](CCCNC(=N)N)C(=O)N[C@@H](CCCCN)C(=O)N[C@@H](CCCNC(=N)N)C(=O)N[C@@H](CCC(N)=O)C(=O)N[C@@H](CCC(N)=O)C(N)=O)[C@@H](C)CC)[C@@H](C)CC)[C@@H](C)O)[C@@H](C)O)C(C)C)C(C)C` [Melittin], the “hemolysis of mouse red blood cells” value with mouse erythrocytes was found to be 92%.
Turning to Papiliocin, in the series with mammalian cells, the “toxicity toward mammalian cells” value is listed as “non-toxicity toward mammalian cells”. Moreover, the anti-inflammatory activity result in series [1] is given as “anti-inflammatory activity”. In addition, the bactericidal activity entry in series [2] was “bactericidal activity against both Gram-positive and Gram-negative bacteria”.

These data come from article PMC7697948, “Deciphering Novel Antimicrobial Peptides from the Transcriptome of Papilio xuthus” (Insects, 2020).
